The text below walks through data of publication PMC10216478, “Development of a Non-Peptide Angiotensin II Type 1 Receptor Ligand by Structural Modification of Olmesartan as a Biased Agonist” (Biomedicines, 2023).

Structures are written as SMILES. Changes are numbered by the printed parent chain.

Test [1] deals with T1, AT1 Y292A receptor (Rattus norvegicus, UniProt P25095, Y292A).
T1 construct: expressed in transfected cells; host or cells: COS7
T1 sequence (P25095 1-359 Y292A): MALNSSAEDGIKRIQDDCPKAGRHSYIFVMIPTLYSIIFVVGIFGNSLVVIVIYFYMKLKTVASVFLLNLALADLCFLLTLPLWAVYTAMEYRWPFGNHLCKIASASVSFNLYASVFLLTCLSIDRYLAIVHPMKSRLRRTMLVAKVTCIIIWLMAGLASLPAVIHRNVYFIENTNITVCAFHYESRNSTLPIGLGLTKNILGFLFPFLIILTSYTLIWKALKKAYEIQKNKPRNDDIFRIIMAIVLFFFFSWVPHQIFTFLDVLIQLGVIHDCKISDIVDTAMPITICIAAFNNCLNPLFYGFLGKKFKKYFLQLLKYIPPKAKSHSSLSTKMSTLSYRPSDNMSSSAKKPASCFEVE
The experiment in a line: Competition binding study, 125I-[Sar1,Ile8]Ang II, AT1 Y292A receptor. The following applies: competition with 125I-[Sar1,Ile8]Ang II, n = 3, mean ± standard error, read-out: Binding affinity (Kd). The text has this: We mutated four amino acids in transmembrane (TM) III, VI, and VII in the AT1 receptor (L112A, Q257A, Y292A, and N295A receptors). We determined the mutation sites of the AT1 receptor according to ARB, which produced olmesartan derivatives with different interactions and functions toward the AT1 receptor, as previously reported by Zhang et al., since the additional 4-hydroxybenzyl groups of R781253 and R794847 were predicted to extend to a sub-pocket on the bottom of the AT1 receptor ligand-binding pocket consisting of Leu^112 and Gln^257. In addition, since the biased ligand TRV027 induced changes near the NPxxY motif in TM domain 7 that are related to receptor activation, Tyr^292 and Asn^295 in the AT1 receptor were mutated.
(§1) The synthetic rat AT1 receptor gene, which was cloned in the shuttle expression vector pMT-2, was used for expression and mutagenesis, as described previously. COS7 cells (No. CRL-1651, ATCC, Manassas, VA, USA) were cultured in 10% fetal bovine serum (FBS) and penicillin- and streptomycin-supplemented Dulbecco’s modified Eagle’s essential medium (PS-DMEM) in 5% CO2 at 37 °C. In the experiments, cells were grown without a cell-growth supplement. To express the AT1 receptor protein, 10 µg of purified plasmid DNA per 10^7 cells was used in the transfection. Wild-type and mutated AT1 receptors were transiently transfected into cells using Lipofectamine 2000 liposomal reagent (Roche Applied Science, Penzberg, Germany). Cells were plated and grown and were 70–90% confluent at the time of transfection. We incubated plasmid DNA (10 µg)–lipid (10 µL) complexes for 5 min at room temperature and added and incubated the complexes with cells for 24 h. We then analyzed the parameters in transfected cells. Cell viability was >95% according to trypan blue exclusion analysis in the control experiments. Transfected cells that had been cultured for 48–72 h were harvested. Cell membranes were prepared using the nitrogen Parr bomb disruption or freeze–thaw methods.
The Kd (nM) values of receptor binding were determined with ^125I-[Sar^1, Ile^8]AngII-binding experiments under equilibrium conditions. Binding kinetics were determined following the methods described in the literature. We carried out binding by using ^125I-[Sar^1, Ile^8] AngII (2200 Ci/mmol) and an increasing concentration (10^−11–10^−5 M) of each unlabeled compound. Nonspecific binding of ^125I-[Sar^1, Ile^8] Ang II was determined in the presence of a high concentration (10^−6 M) of unlabeled [Sar^1, Ile^8]. Next, the incubation mixture was separated by vacuum filtration through Whatman GF/C glass filters (Disposable Filter Funnels Grade GF/C, GE Healthcare), and presoaked with 0.1% polyethylenimine. The filter was washed with 3 mL of ice-cold stop buffer (25 mM Tris–HCl, pH 7.4, 1 mM MgCl2). The radioactivity trapped on the filters was quantified using an automatic γ-counter. The percentage (%) of specific binding of ^125I-[Sar^1, Ile^8]Ang II was calculated using the following formula: 100 × (% total binding of ^125I-[Sar^1, Ile^8]Ang II—nonspecific binding of ^125I-[Sar^1, Ile^8]Ang II)/(% total binding of ^125I-[Sar^1, Ile^8]Ang II).

Test [2] concerns the target T2, AT1 wild-type receptor (Rattus norvegicus, UniProt P25095).
T2 construct: expressed in transfected cells; host or cells: COS7
T2 sequence (P25095 1-359): T1 sequence (P25095 1-359 Y292A) with A292Y
Briefly: Immunoblotting of ERK 1/2 activation in COS7 cells overexpressing AT1 wild-type receptor. The test is classed as cell-based. To be noted: for ERK1/2 activation: AT1 wild-type receptor, COS7 cells, 1 µM ligands or 0.1 µM Ang II, 10 min, n = 5, vs. (-); for Mode of action in terms of ERK1/2 activation: authors' classification from ERK1/2 activation. The protocol:
as §1, with “COS7 cells (No. CRL-1651, ATCC, Manassas, VA, USA) were cultured in 10% fetal bovine serum (FBS) and penicillin- and streptomycin-supplemented Dulbecco’s modified Eagle’s essential medium (PS-DMEM) in 5% CO2 at 37 °C.” left out, “Cell viability was >95% according to trypan blue exclusion analysis in the control experiments.” left out
In in vitro studies, ERK 1/2 activation by 1 µM ligands or 0.1 µM Ang II incubated for 10 min was measured using COS7 cells that overexpressed AT1 wild-type and mutant receptors. ERK activity was measured in cells maintained for 18 h in DMEM containing 0.1% serum. At the end of the stimulation, the culture medium was removed by aspiration, the cells were washed with ice-cold phosphate-buffered saline, and the dishes were frozen in liquid nitrogen. The cells were scraped using a scraper after melting, and the scraped cells were transferred to a tube. We homogenized the cells in lysis buffer plus protease inhibitors and determined the protein concentration using the bicinchoninic acid method. […] We fractionated total proteins using sodium dodecyl sulfate polyacrylamide gel electrophoresis; we then transferred the proteins to a Hybond nitrocellulose membrane and blocked the blotted membranes with 10% bovine serum albumin in tris-buffered saline buffer (50 mM Tris–HCl pH 7.6, 150 mM NaCl) for 1 h at room temperature. […] An enhanced chemiluminescent substrate system (Amersham, Buckinghamshire, UK) was used. The signal was independently quantified by digital image analysis (ImageJ, National Institutes of Health, Bethesda, MD, USA).

A word on the Kd: it is the free concentration of one partner at which half of the binding sites on the other are occupied at equilibrium, for simple one-to-one binding. Consider `CCCc1nc(C(C)(C)O)c(C(N)=O)n1Cc1ccc(-c2cc(Cc3ccc(O)cc3)ccc2-c2nnn[nH]2)cc1` [R794847], for which the dissociation constant (Kd) in test [1] was 30 ± 8 nM. Further, in test [2], the ERK1/2 activation result was “activated ERK1/2” and the “Mode of action in terms of ERK1/2 activation” value is given as “agonists in terms of ERK1/2 activation”.

In the case of `CCCc1nc(C(C)(C)O)c(C(N)=O)n1Cc1ccc(-c2ccccc2-c2nnn[nH]2)cc1` [R239470], the Kd in test [1] was determined as 6.3 ± 3.8 nM. Besides, the ERK1/2 activation result in test [2] is given as “but not R239470, activated ERK1/2”.

Regarding `CCCc1nc(C(C)(C)O)c(C(=O)O)n1Cc1ccc(-c2ccccc2-c2nnn[nH]2)cc1` [Olmesartan, olmesartan], the Kd in test [1] amounted to 47 ± 15 nM. Also, the ERK1/2 activation result in test [2] is listed as “did not change ERK1/2 activation”.

Take `CCCc1nc(C(C)(C)O)c(C(=O)O)n1Cc1ccc(-c2cc(Cc3ccc(O)cc3)ccc2-c2nnn[nH]2)cc1` [R781253]: in test [1], the Kd worked out at 95 ± 7 nM. Besides, in test [2], the ERK1/2 activation entry is reported as “activated ERK1/2” and the “Mode of action in terms of ERK1/2 activation” value was “agonists in terms of ERK1/2 activation”.
